Reference: patent US20130344026A1, “Dimeric Smac Mimetics” (priority 2009, published 2013)
Read-outs that look alike come from different tables or passages of the source.

Test system: PANC-1 cells
Assay: cell viability assay in PANC-1 cells (compound alone, + 100 ng/ml TNFa, + 300 ng/ml TRAIL)
Assay type: cell-based
[1] = Homo sapiens, PANC-1, compound alone, Tables 6-10, read-out: IC50 (μM) in cell viability assay in PANC-1 cells: Compound alone
[2] = with 100 ng/ml TNFa, Tables 6-10, read-out: IC50 (μM) in cell viability assay in PANC-1 cells: Compound + 100 ng/ml TNFa
[3] = with 300 ng/ml TRAIL, Tables 6-10, read-out: IC50 (μM) in cell viability assay in PANC-1 cells: Compound + 300 ng/ml TRAIL
[4] = Homo sapiens, PANC-1, compound alone, Tables 15-18, read-out: IC50 (uM) in cell viability assay in PANC-1 cells: Cmpnd alone
[5] = with 100 ng/ml TNFa, Tables 15-18, read-out: IC50 (uM) in cell viability assay in PANC-1 cells: Cmpnd + 100 ng/ml TNFa
[6] = with 300 ng/ml TRAIL, Tables 15-18, read-out: IC50 (uM) in cell viability assay in PANC-1 cells: Cmpnd + 300 ng/ml TRAIL
[7] = Homo sapiens, PANC-1 cells, compound alone, read-out: IC50 (uM) in cell viability assay in PANC-1 cells, Cmpnd alone
[8] = PANC-1 cells, + 100 ng/ml TNFa, read-out: IC50 (uM) in cell viability assay in PANC-1 cells, Cmpnd + 100 ng/ml TNFa
[9] = PANC-1 cells, + 300 ng/ml TRAIL, read-out: IC50 (uM) in cell viability assay in PANC-1 cells, Cmpnd + 300 ng/ml TRAIL

SMILES | IC50 [1] | IC50 [2] | IC50 [3] | other results
CN[C@@H](C)C(=O)N[C@H](C(=O)N1CCC[C@H]1CN1C(=O)OC[C@@H]1Cc1ccccc1)[C@@H](C)OCCCCCCO[C@H](C)[C@H](NC(=O)[C@H](C)NC)C(=O)N1CCC[C@H]1CN1C(=O)OC[C@@H]1Cc1ccccc1 [Compound 84] | > 1 µM | > 1 µM | > 1 µM | 
CN[C@@H](C)C(=O)NC(C(=O)N[C@@H](CCNC(=O)CCc1cn([C@H]2C[C@@H](C(=O)N[C@@H]3CCCc4ccccc43)N(C(=O)[C@@H](NC(=O)[C@H](C)NC)C3CCCCC3)C2)nn1)C(=O)N[C@H](C)C(C)C)C(C)C (stereo partly drawn) [Compound 204] | > 1 µM | 0.392 µM | 0.564 µM | 
CN[C@@H](C)C(=O)N[C@H](C(=O)N1C[C@@H](NC(=O)c2cccc(C(=O)N[C@H]3C[C@@H](C(=O)NCCc4ccc(O)c(O)c4)N(C(=O)[C@@H](NC(=O)[C@H](C)NC)C(C)(C)C)C3)c2)C[C@H]1C(=O)NCCc1ccc(O)c(O)c1)C(C)(C)C [Compound 9] | > 1 µM | > 1 µM | > 1 µM | 
CN[C@@H](C)C(=O)N[C@@H](CCNCc1ccc(CNCC[C@H](NC(=O)[C@H](C)NC)C(=O)N2CCC[C@H]2C(=O)N[C@@H]2CCCc3ccccc32)cc1)C(=O)N1CCC[C@H]1C(=O)N[C@@H]1CCCc2ccccc21 [Compound P2-43] |  |  |  | IC50 [4]: > 1 µM; IC50 [5]: 0.012 µM; IC50 [6]: 0.016 µM
CN[C@@H](C)C(=O)N[C@H](C(=O)N1C[C@@H](NC(=O)c2cccc(C(=O)N[C@H]3C[C@@H](C(=O)N[C@@H]4CCCc5c(O)cccc54)N(C(=O)[C@@H](NC(=O)[C@H](C)NC)C(C)(C)C)C3)c2)C[C@H]1C(=O)N[C@@H]1CCCc2c(O)cccc21)C(C)(C)C (single isomer, unassigned) [Compound 60] | > 1 µM | 0.044 µM | 0.049 µM | 
CN[C@@H](C)C(=O)N[C@@H](CCCCNC(=O)c1cccc(C(=O)NCCCC[C@H](NC(=O)[C@H](C)NC)C(=O)N2CCC[C@H]2Cn2nnnc2Sc2ccccc2)c1)C(=O)N1CCC[C@H]1Cn1nnnc1Sc1ccccc1 [Compound P2-48] |  |  |  | IC50 [4]: > 1 µM; IC50 [5]: 0.263 µM; IC50 [6]: 0.398 µM
CN[C@@H](C)C(=O)N[C@H](C(=O)N1CCC[C@H]1C(=O)N[C@H]1c2ccccc2C[C@H]1OCC#CC#CCO[C@@H]1Cc2ccccc2[C@@H]1NC(=O)[C@@H]1CCCN1C(=O)[C@@H](NC(=O)[C@H](C)NC)C(C)(C)C)C(C)(C)C [Compound 119] | > 1 µM | 0.0014 µM | 0.0018 µM | 
CN[C@@H](C)C(=O)N[C@@H](CCCCCC[C@H](NC(=O)[C@H](C)NC)C(=O)N1CCC[C@H]1CNC(=O)c1ccccn1)C(=O)N1CCC[C@H]1CNC(=O)c1ccccn1 [Compound 17] | > 1 µM | > 1 µM | > 1 µM | 
CN[C@@H](C)C(=O)N[C@@H](CCC(=O)Nc1ccc(C#Cc2ccc(NC(=O)CC[C@H](NC(=O)[C@H](C)NC)C(=O)N3CCC[C@H]3C(=O)N[C@@H]3CCCc4ccccc43)cc2)cc1)C(=O)N1CCC[C@H]1C(=O)N[C@@H]1CCCc2ccccc21 [Compound P3-98] |  |  |  | IC50 [7]: > 1 µM; IC50 [8]: 0.01 µM; IC50 [9]: 0.012 µM
CN[C@@H](C)C(=O)N[C@@H](CCCCNC(=O)c1cc(C(=O)NCCCC[C@H](NC(=O)[C@H](C)NC)C(=O)N2CCC[C@H]2Cn2nnnc2Sc2ccccc2)[nH]n1)C(=O)N1CCC[C@H]1Cn1nnnc1Sc1ccccc1 [Compound 208] | > 1 µM | 0.614 µM | > 1 µM | 
CN[C@@H](C)C(=O)N[C@@H](CCC(=O)Nc1ccc2c(c1)Cc1cc(NC(=O)CC[C@H](NC(=O)[C@H](C)NC)C(=O)N3CCC[C@H]3C(=O)N[C@@H]3CCCc4ccccc43)ccc1-2)C(=O)N1CCC[C@H]1C(=O)N[C@@H]1CCCc2ccccc21 [Compound 117] | > 1 µM | 0.02 µM | 0.025 µM | 
CN[C@@H](C)C(=O)N[C@H](C(=O)N1C[C@@H](NC(=O)c2ccc(C#Cc3ccc(C(=O)N[C@H]4C[C@@H](C(=O)N[C@@H]5CCCc6ccccc65)N(C(=O)[C@@H](NC(=O)[C@H](C)NC)C(C)(C)C)C4)cc3)cc2)C[C@H]1C(=O)N[C@@H]1CCCc2ccccc21)C(C)(C)C [Compound P3-100] |  |  |  | IC50 [7]: > 1 µM; IC50 [8]: 0.054 µM; IC50 [9]: 0.055 µM
CCC1(NC(=O)[C@@H]2C[C@H](NC(=O)c3cccc(C(=O)N[C@H]4C[C@@H](C(=O)NC5(CC)CCCc6ccccc65)N(C(=O)[C@@H](NC(=O)[C@H](C)NC)C(C)(C)C)C4)c3)CN2C(=O)[C@@H](NC(=O)[C@H](C)NC)C(C)(C)C)CCCc2ccccc21 (stereo partly drawn) [Compound 50] | > 1 µM | 0.236 µM | 0.122 µM | 
CN[C@@H](C)C(=O)N[C@H](C(=O)N1C[C@@H](NC(=O)c2cccc(C(=O)N[C@H]3C[C@@H](C(=O)NC4CCCc5cc(F)ccc54)N(C(=O)[C@@H](NC(=O)[C@H](C)NC)C(C)(C)C)C3)c2)C[C@H]1C(=O)NC1CCCc2cc(F)ccc21)C(C)(C)C (single isomer, unassigned) [Compound 72] | > 1 µM | 0.0018 µM | 0.0033 µM | 
C[C@H](N)C(=O)N[C@H](C(=O)N1C[C@@H](NC(=O)c2cccc(C(=O)N[C@H]3C[C@@H](C(=O)N[C@H]4CCCc5ccccc54)N(C(=O)[C@@H](NC(=O)[C@H](C)N)C(C)(C)C)C3)c2)C[C@H]1C(=O)N[C@H]1CCCc2ccccc21)C(C)(C)C [Compound P3-106] |  |  |  | IC50 [7]: > 1 µM; IC50 [8]: 0.193 µM; IC50 [9]: 0.115 µM
C#CC[C@H](NC(=O)[C@H](C)NC)C(=O)N1C[C@@H](NC(=O)c2cc(N)cc(C(=O)N[C@H]3C[C@@H](C(=O)N[C@@H]4CCCc5ccccc54)N(C(=O)[C@@H](NC(=O)[C@H](C)NC)C(C)(C)C)C3)c2)C[C@H]1C(=O)N[C@@H]1CCCc2ccccc21 [Compound H-6] |  |  |  | IC50 [4]: > 1 µM; IC50 [5]: 0.0229 µM; IC50 [6]: 0.0611 µM
CN[C@@H](C)C(=O)N[C@H](C(=O)N1CCC[C@H]1c1cc(C(=O)OC)c(-c2cn(CCCCCCn3cc(-c4oc([C@@H]5CCCN5C(=O)[C@@H](NC(=O)[C@H](C)NC)C(C)(C)C)cc4C(=O)OC)c4ccccc43)c3ccccc23)o1)C(C)(C)C [Compound P4-27] |  |  |  | IC50 [4]: > 1 µM; IC50 [5]: 0.0243 µM; IC50 [6]: 0.0294 µM
CN[C@@H](C)C(=O)N[C@@H](CCCCCC[C@H](NC(=O)[C@H](C)NC)C(=O)N1C[C@@H](F)C[C@H]1C(=O)N[C@@H]1CCCc2ccccc21)C(=O)N1C[C@H](F)C[C@H]1C(=O)N[C@@H]1CCCc2ccccc21 [Compound 106] | > 1 µM | 0.006 µM | 0.006 µM | 
CN[C@@H](C)C(=O)N[C@H](C(=O)N1CCC[C@H]1C(=O)N[C@H]1c2ccccc2C[C@@H]1NC(=O)CCCCC(=O)N[C@H]1Cc2ccccc2[C@@H]1NC(=O)[C@@H]1CCCN1C(=O)[C@@H](NC(=O)[C@H](C)NC)C(C)(C)C)C(C)(C)C [Compound 123] | > 1 µM | 0.069 µM | 0.067 µM | 
CN[C@@H](C)C(=O)N[C@@H](CCCCCC[C@H](NC(=O)[C@H](C)NC)C(=O)N1Cc2ccccc2C[C@H]1C(=O)N[C@H](C)c1ccccc1)C(=O)N1Cc2ccccc2C[C@H]1C(=O)N[C@H](C)c1ccccc1 [Compound 96] | > 1 µM | 0.211 µM | 0.417 µM | 
CN[C@@H](C)C(=O)NC(C(=O)N1C[C@@H](NC(=O)c2cccc(C(=O)N[C@H]3CC(C(=O)N[C@H](C)c4cccc5ccccc45)N(C(=O)[C@@H](NC(=O)[C@H](C)NC)C(C)(C)C)C3)c2)CC1C(=O)NC(C)c1cccc2ccccc12)C(C)(C)C (stereo partly drawn) [Compound 41] | > 1 µM | 0.452 µM | 0.434 µM | 
CN[C@@H](C)C(=O)N[C@H](C(=O)N1C[C@@H](NC(=O)c2cccc(C(=O)N[C@H]3C[C@@H](C(=O)NC4CCOc5ccccc54)N(C(=O)[C@@H](NC(=O)[C@H](C)NC)C(C)(C)C)C3)c2)C[C@H]1C(=O)NC1CCOc2ccccc21)C(C)(C)C (single isomer, unassigned) [Compound 66] |  | 0.012 µM | 0.013 µM | IC50 (compound alone, Tables 6-10, read-out: IC50 (μM) in cell viability assay in PANC-1 cells: Compound alone): > 1 µM
CN[C@@H](C)C(=O)N[C@@H](C)C(=O)N1C[C@@H](NC(=O)c2cccc(C(=O)N[C@H]3C[C@@H](C(=O)N[C@@H]4CCCc5ccccc54)N(C(=O)[C@@H](NC(=O)[C@H](C)NC)C(C)(C)C)C3)c2)C[C@H]1C(=O)N[C@H](C)c1ccccc1 [Compound 172] | > 1 µM | 0.025 µM | 0.028 µM | 
CN[C@@H](C)C(=O)N[C@H](C(=O)N1C[C@@H](NC(=O)c2cccc(C(=O)N[C@H]3C[C@@H](C(=O)N[C@H](C)C4OCCCO4)N(C(=O)[C@@H](NC(=O)[C@H](C)NC)C(C)(C)C)C3)c2)C[C@H]1C(=O)N[C@H](C)C1OCCCO1)C(C)(C)C [Compound 53] | > 1 µM | 0.466 µM | 0.227 µM | 
CC[C@@H](NC)C(=O)N[C@@H](C(=O)N[C@@H](C)C(=O)N[C@H](COCC#CC#CCOC[C@@H](NC(=O)C1CCCN1C(=O)[C@@H](NC(=O)[C@H](C)NC)C(C)(C)C)C1CCCCC1)C(C)C)C1CCCCC1 (stereo partly drawn) [Compound H-9] |  |  |  | IC50 [4]: > 1 µM; IC50 [5]: 0.005 µM; IC50 [6]: 0.004 µM
CN[C@@H](C)C(=O)NC(C(=O)N1CCC[C@H]1C(=O)NC1CCCc2ccccc21)c1ccc(CCc2ccc([C@H](NC(=O)[C@H](C)NC)C(=O)N3CCC[C@H]3C(=O)NC3CCCc4ccccc43)cc2)cc1 (stereo partly drawn) [Compound P2-35] |  |  |  | IC50 [4]: > 1 µM; IC50 [5]: 0.007 µM; IC50 [6]: 0.007 µM
